Assay results taken from patent EP4389746A2, “P2X3 RECEPTOR ANTAGONISTS” (Recordati Industria Chimica E Farmaceutica SPA, priority 2022, dated 2024).
pIC50: −log10 of the molar value.

Experiments:
human P2X3 receptor = molecular target: T1, human P2X3 receptor (Homo sapiens, UniProt P56373); assay: Calcium luminescence measurement: human P2X3 receptor activity inhibition (CHO-K1 cells, photoprotein readout, FLEXSTATION); format: cell-based; conditions: CHO-K1 cells co-expressing human P2X3 and Ca2+ sensitive photoprotein; agonist α,β-Met-ATP; read-out: h-P2X3 IC50
T1 construct: expressed in transfected cells; host or cells: CHO-K1
T1 sequence (P56373 1-397): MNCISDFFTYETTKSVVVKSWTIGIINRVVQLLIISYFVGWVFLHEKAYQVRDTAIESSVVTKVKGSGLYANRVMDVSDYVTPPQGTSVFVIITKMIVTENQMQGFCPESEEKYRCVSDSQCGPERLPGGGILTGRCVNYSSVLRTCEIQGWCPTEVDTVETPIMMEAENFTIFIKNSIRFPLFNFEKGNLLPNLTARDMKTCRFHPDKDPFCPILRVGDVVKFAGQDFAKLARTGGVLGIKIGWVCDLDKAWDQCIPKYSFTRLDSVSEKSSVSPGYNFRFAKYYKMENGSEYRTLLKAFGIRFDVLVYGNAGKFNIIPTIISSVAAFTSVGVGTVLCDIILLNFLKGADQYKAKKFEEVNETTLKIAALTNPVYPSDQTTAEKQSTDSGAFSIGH
Protocol: Determination of human P2X3 receptor activity inhibition
The assay for the human purinergic P2RX3 receptor has been adapted to the internal screening instrumentation using the FLEXSTATION as reader and a photoprotein as luminescent readout. The assay consists of CHO-K1 cells recombinantly co-expressing the human P2rx3 receptor and a Ca^2+ sensitive photoprotein. Cells are maintained in DMEM F-12 (1:1) mixture (LONZA cat. n° BE04-687F/U1) supplemented with 9 mL of 100 mM Sodium Pyruvate (LONZA cat. n° BE13-115E), 29 mL of 7.5% Sodium Bicarbonate (LONZA cat. n° BE17-613E), 5.5 mL of 1 M Hepes (LONZA cat. n° BE17-737E), 5 mL of 100X Penicillin/Streptomycin mixture (LONZA cat. n° DE17-602E) and 50 mL of Fetal Bovine Serum (Sigma cat. n° F7524), 1 mg/mL G418 disulfate salt (Sigma cat. n° G8168) and 5 µg/ml Puromycin dihydrochloride (Sigma cat. n° P9620). Standard propagation conditions consist of seeding in a P75 flask twice a week, recovering about 20×10^6 cells, corresponding to about 80% confluency. Cells were seeded into black-walled clear bottom 96 well plates at a density of 40000 cells/well in a complete medium. After 24 h the culture medium was replaced with 200 µL/well of coelenterazine in Tyrode's buffer (Standard Tyrode's buffer: in house solution, 130 mM NaCl, 5 mM KCl, 2 mM CaCl2, 5 mM NaHCO3, 1 mM MgCl2, 20 mM HEPES, pH 7.4). Coelenterazine was purchased from BIOSYNTH (cat. n° C-7001). 10 mM stock solution was prepared in DMSO and glutathione and stored at -20° C. The plates were incubated for 4 hours at 37°C, and injected with 10 µL/well of test compounds at 25X concentration in Tyrode's buffer. After 4 minutes a second injection of 50 µL/well of 5X α,β-Met-ATP in Tyrode's buffer (α,β-Met-ATP: from Tocris (cat. n° 3209), was dissolved at 100 mM in water and stored in aliquots at -20°C) was performed and the signal of the emitted luminescence was recorded by FLEXSTATION III (Molecular Devices). […]
The inhibition curves of the tested compounds at cloned P2X3 receptor were determined by nonlinear regression analysis using software Prism 5.0 (Graphpad, San Diego, CA). The IC50 values and pseudo-Hill slope coefficients were estimated by the program.

human P2X2/3 receptor = molecular target: T2, human P2X2/3 receptor (Homo sapiens, UniProt P56373+Q9UBL9); assay: Calcium fluorescence measurement: human P2X2/3 receptor activity inhibition (CHO-K1 cells, Fluo-8 NoWash, […]); format: cell-based; conditions: for pIC50: CHO-K1 cells expressing human P2RX2/X3 channel, 10µM α,β-Met-ATP, read-out: h-P2X2/3 IC50; for Selectivity: ratio of IC50 of P2X2/3/ P2X3 receptors
T2 construct: expressed in transfected cells; host or cells: CHO-K1
T2 sequence (P56373 1-397): T1 sequence (P56373 1-397)
T2 sequence (Q9UBL9 1-471): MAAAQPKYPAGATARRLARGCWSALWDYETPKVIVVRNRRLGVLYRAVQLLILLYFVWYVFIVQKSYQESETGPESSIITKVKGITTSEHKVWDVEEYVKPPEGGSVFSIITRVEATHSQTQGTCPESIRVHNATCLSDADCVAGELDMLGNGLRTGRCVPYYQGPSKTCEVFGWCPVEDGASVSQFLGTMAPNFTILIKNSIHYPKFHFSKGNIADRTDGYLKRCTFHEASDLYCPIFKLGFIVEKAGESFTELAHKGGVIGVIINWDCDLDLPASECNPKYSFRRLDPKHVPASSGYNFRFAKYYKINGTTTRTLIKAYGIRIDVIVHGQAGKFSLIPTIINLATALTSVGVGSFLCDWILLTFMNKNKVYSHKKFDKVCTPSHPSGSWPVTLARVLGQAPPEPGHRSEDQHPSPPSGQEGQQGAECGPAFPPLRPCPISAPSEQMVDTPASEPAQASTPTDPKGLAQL
Protocol: Determination of human P2X2/3 receptor activity inhibition
The assay for the human P2RX2/X3 has been evaluated by the screening instrumentation using the […] as reader and the FLUO8-NoWash dye as fluorescent readout for calcium detection.
CHO-K1 cells recombinantly expressing the human P2RX2/X3 channel are maintained in DMEM F-12 (1:1) mixture (LONZA cat. n°: BE04-687F/U1) supplemented with 5 mL of 100 mM Sodium Pyruvate (LONZA cat. n° BE13-115E), 25 mL of 7.5% Sodium Bicarbonate (LONZA cat. n° BE17-613E), 6.5 mL of 1M Hepes (LONZA cat. n° BE17-737E), 5 mL of 100X Penicillin/Streptomycin mixture (LONZA cat. n° DE17-602E) and 50 mL of Fetal Bovine Serum (Sigma cat. n° F7524), 5 µg/mL Puromycin dihydrochloride (Sigma cat. n° P9620) and 1 mg/ml G418 disulfate salt (Sigma cat. n° G8168).
Cells were seeded into black-walled clear bottom 384 Multiwell plates at a density of 10.000 cells/well in complete medium. After 24 h the culture medium was replaced with 20 µL/well of Fluo-8 NoWash calcium sensitive dye (AAT Bioquest cat. n° 36316) diluted in Tyrode's buffer (Standard Tyrode's buffer: in house solution, 130 mM NaCl, 5 mM KCl, 2 mM CaCl2, 5 mM NaHCO3, 1 mM MgCl2, 20 mM HEPES, pH 7.4).
The plates were incubated for 1 hours at 37°C and injected with 10 µL/well of test compounds at 3X concentration in Tyrode's buffer with the […]. After 5 minutes a second injection of 15 µL/well of 10µM α,β-Met-ATP in Tyrode's buffer (α,β-Met-ATP: from Tocris cat. n° 3209) was performed and the signal of the emitted fluorescence was recorded by […] (Molecular Devices).
The selectivity is expressed as the ratio of IC50 of P2X2/3/ P2X3 receptors. Table 8: Human P2X3 and h-P2X2/3 receptor antagonist activity for selected compounds of the invention.

| Structure (SMILES) | pIC50 (human P2X3 receptor) | pIC50 (human P2X2/3 receptor) | Selectivity (human P2X2/3 receptor) |
| --- | --- | --- | --- |
| CC(C)C1CN2C(=O)N(Cc3ccc(Cl)cc3)c3cc(N4CCOCC4)cnc3C2=N1 (racemic) [Example 9, 6-[(4-Chlorophenyl)methyl]-8-(morpholin-4-yl)-2-(propan-2-yl)-2,6-dihydroimidazo[1,2-c]pyrido[2,3-e]pyrimidin-5(3H)-one] | 6.78 | 5.13 | 44 |
| COC(C)(C)C1CN2C(=O)N(Cc3ccc(Cl)cc3)c3cc(N4CCOCC4)cnc3C2=N1 (centres unmarked) [Example 5, 6-(4-Chlorobenzyl)-2-(2-methoxypropan-2-yl)-8-(morpholin-4-yl)-2,6-dihydroimidazo[1,2-c]pyrido[2,3-e]pyrimidin-5(3H)-one] | 6.95 | 4.72 | 170 |
| CC(C)C1CN2C(=O)N(CC(=O)Nc3ccc(F)cn3)c3cc(N4CCOCC4)cnc3C2=N1 (centres unmarked) [Example 6, N-(5-Fluoropyridin-2-yl)-2-[8-(morpholin-4-yl)-5-oxo-2-(propan-2-yl)-2,3-dihydroimidazo[1,2-c]pyrido[2,3-e]pyrimidin-6(5H)-yl]acetamide] | 7.47 | 6.66 | 6.5 |
| CC(C)(CO)C1CN2C(=O)N(Cc3ccc(Cl)cc3)c3cc(N4CCOCC4)nnc3C2=N1 (centres unmarked) [Example 17, 5-[(4-Chlorophenyl)methyl]-9-(1-hydroxy-2-methylpropan-2-yl)-3-(morpholin-4-yl)-8,9-dihydroimidazo[1',2':1,6]pyrimido[5,4-c]pyridazin-6(5H)-one] | 7.38 | < 4.52 | >722 |
| COC(C)(C)C1CN2C(=O)N(Cc3ccc(Cl)cc3)c3cc(N4CCOCC4)nnc3C2=N1 (centres unmarked) [Example 18, 5-[(4-Chlorophenyl)methyl]-9-(2-methoxypropan-2-yl)-3-(morpholin-4-yl)-8,9-dihydroimidazo[1',2':1,6]pyrimido[5,4-c]pyridazin-6(5H)-one] | 7.33 | < 4.52 | >646 |
| CC(C)(O)C1CN2C(=O)N(Cc3ccc(Cl)cc3)c3cc(N4CCOCC4)nnc3C2=N1 (centres unmarked) [Example 19, 5-[(4-Chlorophenyl)methyl]-9-(2-hydroxypropan-2-yl)-3-(morpholin-4-yl)-8,9-dihydroimidazo[1',2':1,6]pyrimido[5,4-c]pyridazin-6(5H)-one] | 7.51 | < 4.52 | >961 |
| COc1ccc(CN2C(=O)N3C(=NC(=O)C3C(C)(C)C)c3ncc(N4CCOCC4)cc32)cc1 (centres unmarked) [Example 20, 3-tert-Butyl-6-[(4-methoxyphenyl)methyl] -8-(morpholin-4-yl)imidazo[1,2-c]pyrido[2,3-e]pyrimidine-2,5(3H,6H)-dione] | 6.94 | 4.55 | 249 |

Other lines, results leading:

| pIC50 (human P2X3 receptor) | pIC50 (human P2X2/3 receptor) | Selectivity (human P2X2/3 receptor) | Structure (SMILES) |
| --- | --- | --- | --- |
| 7.17 | 5.46 | 51 | CC(C)(C)C1C(=O)N=C2c3ncc(N4CCOCC4)cc3N(Cc3ccc(Cl)cc3)C(=O)N21 (centres unmarked) [Example 21] |
| 6.94 | < 4.52 | >260 | CC(C)C1C(=O)N=C2c3ncc(N4CCC(O)CC4)cc3N(Cc3ccc(Cl)cc3)C(=O)N21 (centres unmarked) [Example 26, 6-[(4-Chlorophenyl)methyl]-8-(4-hydroxypiperidin-1-yl)-3-(propan-2-yl)imidazo[1,2-c]pyrido[2,3-e]pyrimidine-2,5(3H,6H)-dione] |
| 7.46 | 4.71 | 566 | COc1ccc(Cn2c(=O)n3c(C(C)(C)C)nnc3c3ncc(N4CCOCC4)cc32)cc1 [Example 29, 3-tert-Butyl-6-(4-methoxybenzyl)-8-(morpholin-4-yl)pyrido[2,3-e][1,2,4]triazolo[4,3-c]pyrimidin-5(6H)-one] |
| 7.19 | < 4.52 | >466 | CC(C)(C)c1nnc2c3ncc(N4CCOCC4)cc3n(Cc3ccc(Cl)cc3)c(=O)n12 [Example 30, 3-tert-Butyl-6-[(4-chlorophenyl)methyl]-8-(morpholin-4-yl)pyrido[2,3-e][1,2,4]triazolo[4,3-c]pyrimidin-5(6H)-one] |
| 8.14 | 5.09 | >1000 | CC(C)(C)c1nnc2c3ncc(N4CCOCC4)cc3n(Cc3ccc(Br)cc3)c(=O)n12 [Example 31, 6-[(4-Bromophenyl)methyl] -3-tert-butyl-8-(morpholin-4-yl)pyrido[2,3-e][1,2,4]triazolo[4,3-c]pyrimidin-5(6H)-one] |
| 7.68 | < 4.52 | >1000 | COC(C)(C)c1nnc2c3ncc(N4CCOCC4)cc3n(Cc3ccc(Cl)cc3)c(=O)n12 [Example 32, 6-(4-Chlorobenzyl)-3-(2-methoxypropan-2-yl)-8-(morpholin-4-yl)pyrido[2,3-e][1,2,4]triazolo[4,3-c]pyrimidin-5(6H)-one] |
| 6.67 |  |  | CC(C)(C)c1nc2c3ncc(N4CCCC(O)C4)cc3n(Cc3ccc(Cl)cc3)c(=O)n2n1 (centres unmarked) [Example 52, 2-tert-Butyl-6-[(4-chlorophenyl)methyl]-8-(3-hydroxypiperidin-1-yl)pyrido[2,3-e][1,2,4]triazolo[1,5-c]pyrimidin-5(6H)-one] |
| 7.60 |  |  | CC(C)(C)Cc1nc2c3nnc(N4CCOCC4)cc3n(Cc3ccc(Cl)cc3)c(=O)n2n1 [Example 54, 5-[(4-Chlorophenyl)methyl]-9-(2,2-dimethylpropyl)-3-(morpholin-4-yl)[1,2,4]triazolo[1',5':1,6]pyrimido[5,4-c]pyridazin-6(5H)-one] |
